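How tested: cells in 96-well plates exposed to compound for 48 hours at five concentrations. At the TGI there is no net growth.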

The text below walks through data of PubChem BioAssay (NCI).

Among the test systems are M14 melanoma; PC-3 prostate; ACHN renal; SW-620 colon; SF-539 CNS; HL-60(TB) leukemia; HT29 colon; HOP-92 NSCLC; SN12C renal; NCI-H522 lung; LOX IMVI melanoma; SK-OV-3 ovarian; SK-MEL-2 melanoma; UACC-257 melanoma; HCT-15 colon; IGROV1 ovarian; OVCAR-3 ovarian; NCI-H23 lung; DU-145 prostate; SK-MEL-5 melanoma.
What all share (test): inhibition of tumour cell growth, NCI panel, 48 h

Take `CC(=O)O[C@H]1CC[C@@]2(C)C(=CC[C@H]3[C@@H]4C[C@H](N5CCOCC5)[C@H](OC(C)=O)[C@@]4(C)CC[C@@H]32)C1`: the TGI in the test on M14 melanoma, in the test on PC-3 prostate, with ACHN renal, with SW-620 colon, with SF-539 CNS and in the test with HL-60(TB) leukemia was more than 100 µM in each case. Further, the TGI in the test on HT29 colon, with HOP-92 NSCLC, in the test on SN12C renal, with NCI-H522 lung, in the test on LOX IMVI melanoma and with SK-OV-3 ovarian was more than 100 µM throughout. For the same compound, the TGI in the test on SK-MEL-2 melanoma, with UACC-257 melanoma, in the test on HCT-15 colon, with IGROV1 ovarian, in the test with OVCAR-3 ovarian and with NCI-H23 lung was more than 100 µM in each case. In addition, the TGI with DU-145 prostate and with SK-MEL-5 melanoma was more than 100 µM throughout.

As to `CCN1CCC(O)(/C=C/c2ccc(C)cc2C)C(C(=O)/C=C/c2ccc(C)cc2C)C1` (stereo not given), the TGI in the test on M14 melanoma is 35.7 µM; in the test on PC-3 prostate, 9.17 µM; with ACHN renal it was 3.47 µM; with SW-620 colon, 10.4 µM; with SF-539 CNS it was 4.18 µM; in the test with HL-60(TB) leukemia, more than 100 µM. Also, the TGI with HT29 colon was found to be 5.44 µM; with HOP-92 NSCLC it was 3.8 µM; in the test with SN12C renal, 7.04 µM; in the test on NCI-H522 lung, 3.73 µM; in the test on LOX IMVI melanoma, 3.71 µM; with SK-OV-3 ovarian, 26.7 µM. For the same compound, the TGI in the test with SK-MEL-2 melanoma was 11.1 µM; with UACC-257 melanoma, 11.5 µM; in the test on HCT-15 colon, 4.14 µM; with IGROV1 ovarian, 8.98 µM; in the test on OVCAR-3 ovarian it was 7.84 µM; in the test with NCI-H23 lung, 7.86 µM. Moreover, the TGI in the test on DU-145 prostate turned out to be 10.5 µM; with SK-MEL-5 melanoma, 9.23 µM.

In the case of `CSc1cnc2ccccc2c1SC1CN(Cc2ccccc2)c2ccccc2C1=O` (stereo not given), the TGI with M14 melanoma, with PC-3 prostate, in the test with ACHN renal, with SW-620 colon, in the test with SF-539 CNS and with HL-60(TB) leukemia was more than 100 µM each time. Also, the TGI with HT29 colon, in the test with HOP-92 NSCLC, in the test on SN12C renal, with NCI-H522 lung, in the test on LOX IMVI melanoma and in the test on SK-OV-3 ovarian was more than 100 µM throughout. Further, the TGI in the test with SK-MEL-2 melanoma, in the test with UACC-257 melanoma, in the test on HCT-15 colon, with IGROV1 ovarian, in the test with OVCAR-3 ovarian and in the test on NCI-H23 lung was more than 100 µM in each case. Moreover, the TGI in the test on DU-145 prostate and in the test with SK-MEL-5 melanoma was more than 100 µM each time.

For `COc1ccc2c(cnc3c4cc(OC)c(OC)cc4ccc23)c1`, the TGI in the test with M14 melanoma, in the test on PC-3 prostate, in the test with ACHN renal, in the test with SW-620 colon, in the test on SF-539 CNS and with HL-60(TB) leukemia was more than 100 µM each time. Besides, the TGI with HT29 colon, with HOP-92 NSCLC, with SN12C renal, in the test on NCI-H522 lung, in the test with LOX IMVI melanoma and in the test with SK-OV-3 ovarian was more than 100 µM throughout. The TGI in the test with SK-MEL-2 melanoma, in the test on UACC-257 melanoma, in the test with HCT-15 colon, in the test with IGROV1 ovarian, in the test with OVCAR-3 ovarian and in the test with NCI-H23 lung was more than 100 µM each time. Besides, the TGI in the test on DU-145 prostate and in the test with SK-MEL-5 melanoma was more than 100 µM each time.

With `Cc1nc2sc3ccccc3n2c(=O)c1N=Nc1ccc(Cl)cc1`, the TGI in the test with M14 melanoma, in the test on PC-3 prostate, with ACHN renal, in the test with SW-620 colon, in the test with SF-539 CNS and in the test with HL-60(TB) leukemia was more than 100 µM each time. In addition, the TGI with HT29 colon, with HOP-92 NSCLC, with SN12C renal, in the test with NCI-H522 lung, with LOX IMVI melanoma and with SK-OV-3 ovarian was more than 100 µM in each case. Further, the TGI in the test with SK-MEL-2 melanoma, with UACC-257 melanoma, in the test on HCT-15 colon, in the test with IGROV1 ovarian, with OVCAR-3 ovarian and with NCI-H23 lung was more than 100 µM throughout. Besides, the TGI in the test with DU-145 prostate and with SK-MEL-5 melanoma was more than 100 µM in each case.

As to `COc1nc2nccnc2c(=O)n1C`, the TGI in the test with M14 melanoma, in the test with PC-3 prostate, with ACHN renal, in the test with SW-620 colon, in the test with SF-539 CNS and with HL-60(TB) leukemia was more than 10 µM each time. The TGI with HT29 colon, in the test with HOP-92 NSCLC, with SN12C renal, in the test on NCI-H522 lung, in the test with LOX IMVI melanoma and in the test with SK-OV-3 ovarian was more than 10 µM each time. For the same compound, the TGI in the test on SK-MEL-2 melanoma, with UACC-257 melanoma, with HCT-15 colon, in the test with IGROV1 ovarian, in the test on OVCAR-3 ovarian and in the test with NCI-H23 lung was more than 10 µM throughout. Besides, the TGI with DU-145 prostate and in the test with SK-MEL-5 melanoma was more than 10 µM each time.

`COc1ccc2c(c1)CCN1CCc3ccccc3CC21` (stereo not given): the TGI in the test on M14 melanoma is 36.6 µM; in the test with PC-3 prostate it was more than 100 µM; in the test with ACHN renal, more than 100 µM; in the test on SW-620 colon, more than 100 µM; in the test on SF-539 CNS it was more than 100 µM; with HL-60(TB) leukemia it was 68 µM. Besides, the TGI in the test on HT29 colon is more than 100 µM; in the test with HOP-92 NSCLC it was 68.3 µM; with SN12C renal, more than 100 µM; with NCI-H522 lung, more than 100 µM; with LOX IMVI melanoma it was 58.1 µM; with SK-OV-3 ovarian it was more than 100 µM. In addition, the TGI with SK-MEL-2 melanoma, with UACC-257 melanoma, with HCT-15 colon, with IGROV1 ovarian, in the test on OVCAR-3 ovarian and in the test with NCI-H23 lung was more than 100 µM in each case. The results for the TGI in the test on DU-145 prostate and with SK-MEL-5 melanoma were more than 100 µM and 30.2 µM, respectively.

Take `C=C1C(=O)C=C[C@]2(C)CC[C@H]3C(=C)C(=O)O[C@@H]3[C@@H]12`: the TGI is 3.96 µM in the test with M14 melanoma; 15.7 µM with PC-3 prostate; 9.59 µM with ACHN renal; 5.34 µM in the test with SW-620 colon; 2.61 µM in the test with SF-539 CNS; 14.4 µM with HL-60(TB) leukemia. Moreover, the TGI with HT29 colon turned out to be 3.24 µM; with HOP-92 NSCLC it was 7.62 µM; in the test with SN12C renal, 7.49 µM; in the test on NCI-H522 lung it was 3.77 µM; in the test on LOX IMVI melanoma, 3.94 µM; in the test on SK-OV-3 ovarian, 21.2 µM. Further, the TGI stood at 6.99 µM in the test with SK-MEL-2 melanoma; 10.5 µM in the test with UACC-257 melanoma; 13.8 µM in the test on HCT-15 colon; 4.28 µM in the test with IGROV1 ovarian; 11.1 µM in the test on OVCAR-3 ovarian; 9.61 µM with NCI-H23 lung. Moreover, the TGI in the test with DU-145 prostate was 5.13 µM; in the test on SK-MEL-5 melanoma, 5.93 µM.

Take `CC(=O)[C@@]1(O)CC[C@H]2[C@@H]3C[C@H](C)C4=CC(=O)C=C[C@]4(C)[C@@]3(F)[C@@H](O)C[C@@]21C`: the TGI with M14 melanoma, in the test with PC-3 prostate, with ACHN renal, in the test on SW-620 colon, in the test with SF-539 CNS and in the test on HL-60(TB) leukemia was more than 100 µM throughout. In addition, the TGI in the test on HT29 colon, in the test with HOP-92 NSCLC, in the test with SN12C renal, in the test on NCI-H522 lung, in the test on LOX IMVI melanoma and in the test on SK-OV-3 ovarian was more than 100 µM each time. Further, the TGI in the test with SK-MEL-2 melanoma, with UACC-257 melanoma, in the test on HCT-15 colon, with IGROV1 ovarian, in the test with OVCAR-3 ovarian and with NCI-H23 lung was more than 100 µM throughout. For the same compound, the TGI in the test with DU-145 prostate and in the test on SK-MEL-5 melanoma was more than 100 µM throughout.

On to `CCOC(=O)NC(Nc1ccc([N+](=O)[O-])cc1)(C(F)(F)F)C(F)(F)F`, for which the TGI in the test on M14 melanoma, in the test on PC-3 prostate, in the test with ACHN renal, in the test with SW-620 colon, in the test on SF-539 CNS and in the test with HL-60(TB) leukemia was more than 100 µM throughout. For the same compound, the TGI with HT29 colon, in the test on HOP-92 NSCLC, in the test on SN12C renal, with NCI-H522 lung, with LOX IMVI melanoma and in the test with SK-OV-3 ovarian was more than 100 µM in each case. Also, the TGI in the test with SK-MEL-2 melanoma, with UACC-257 melanoma, in the test on HCT-15 colon, with IGROV1 ovarian, in the test on OVCAR-3 ovarian and with NCI-H23 lung was more than 100 µM in each case. Besides, the TGI in the test with DU-145 prostate and in the test on SK-MEL-5 melanoma was more than 100 µM in each case.

`N#Cc1c(Cl)cc(Cl)n2c1nc1ccccc12`: the TGI was 24.5 µM in the test on M14 melanoma; 29.3 µM in the test with PC-3 prostate; 6.65 µM with ACHN renal; more than 45 µM in the test on SW-620 colon; 12 µM in the test with SF-539 CNS; more than 31.1 µM in the test with HL-60(TB) leukemia. Moreover, the TGI in the test with HT29 colon was 23.6 µM; in the test with HOP-92 NSCLC, more than 21.9 µM; in the test with SN12C renal, 42.1 µM; in the test on NCI-H522 lung, 3.61 µM; in the test on LOX IMVI melanoma it was 18.7 µM; with SK-OV-3 ovarian, 31.2 µM. Also, the TGI in the test with SK-MEL-2 melanoma came to 33.4 µM; in the test with UACC-257 melanoma it was 25.1 µM; with HCT-15 colon, 12.3 µM; in the test with IGROV1 ovarian it was 38.7 µM; in the test on OVCAR-3 ovarian, 15.6 µM; in the test with NCI-H23 lung, 39.9 µM. The TGI amounted to 31.8 µM with DU-145 prostate and 32.7 µM with SK-MEL-5 melanoma.
